In patent US9676715B2, “Bis-indolic derivatives, a process for preparing the same and their uses as a drug” (UNIVERSITE JOSEPH FOURIER, priority 2011, dated 2017):
Converted amounts (≈) assume the structure as drawn.

What was measured:
[1] = test system: HCT116 (human colon tumor); experiment: In vitro cytotoxicity; type: cell-based; settings: read-out: % of cellular growth inhibition; for inhibition at 10 µM: HCT-116, 10^−5 M; for inhibition at 1 µM: HCT-116, 10^−6 M
Description: (§1) In vitro cytotoxicity was assayed on three cell lines—KB (human mouth carcinoma), MCR5 (human lung fibroblast) and HCT116 (human colon tumor). Results are presented in table IV as % of cellular growth inhibition in presence of 10^−5 M and 10^−6 M of the tested bis-indolic derivatives.

[2] = test system: KB (human mouth carcinoma); experiment: In vitro cytotoxicity; type: cell-based; settings: read-out: % of cellular growth inhibition; for inhibition at 10 µM: 10^−5 M; for inhibition at 1 µM: 10^−6 M
Description: as §1

[3] = test system: MRC5 (human lung fibroblast); experiment: In vitro cytotoxicity; type: cell-based; settings: read-out: % of cellular growth inhibition; for inhibition at 10 µM: 10^−5 M; for inhibition at 1 µM: 10^−6 M
Description: as §1

E. faecalis ATCC 29212 = experiment: MIC, microdilution method (9.1); type: cell-based, Enterococcus faecalis; settings: Enterococcus faecalis, ATCC29212, 18 h, read-out: MIC
Description: (§2) The microdilution method recommended by the Clinical and Laboratory Standard Institute [M07-A8, Vol. 29, No. 2] was used. The activity of indolic compounds was tested against 29 bacterial strains belonging to 17 different species and 12 different genera (Staphylococcus, Streptococcus, Enterococcus, Listeria, Bacillus, Haemophilus, Escherichia, Klebsiella, Enterobacter, Serratia, Pseudomonas, and Acinetobacter). Bacterial inocula were prepared in Mueller Hinton broth (MH2, bioMérieux, Marcy L'Etoile, France), supplemented with 10% sheep blood for fastidious species (i.e., Streptococcus pneumoniae and Haemophilus influenzae). They were dispensed in 96 well microtiter plates (5×10^5 CFU/ml of final inoculum). Indolic compounds were added to the wells as to obtain two-fold serial concentrations (0.50-128 mg/L of final concentrations). Plates were incubated at 37° C. in ambient air, or at 37° C. in 5% CO2 enriched atmosphere for fastidious species. […] Drug-free cultures served as growth controls. Cultures receiving gentamicin, ciprofloxacin or cefotaxime served as positive controls.

[4] = test system: S. agalactiae (group B) ATCC 12400; experiment: MIC, microdilution method (9.1); type: cell-based, Streptococcus agalactiae; settings: Streptococcus agalactiae, ATCC12400, 18 h, read-out: MIC
Description: as §2

[5] = test system: HCT116 (human colon tumor); experiment: In vitro cytotoxicity; type: cell-based; settings: HCT-116, HCT116, from 100 μM to 0.005 μM in DMSO, duplicate
[6] = test system: S. pyogenes (group A) CIP 104226; experiment: MIC, microdilution method (9.1); type: cell-based, Streptococcus pyogenes; settings: Streptococcus pyogenes, CIP104226, 18 h, read-out: MIC
Description: as §2

S. pneumoniae ATCC 6303 = experiment: MIC, microdilution method (9.1); type: cell-based, Streptococcus pneumoniae; settings: Streptococcus pneumoniae, ATCC6303, 10% sheep blood, 5% CO2, 18 h, read-out: MIC
Description: as §2

S. aureus ATCC 29213 = experiment: MIC, microdilution method (9.1); type: cell-based, Staphylococcus aureus; settings: Staphylococcus aureus, ATCC29213, read after 18 h, read-out: MIC
Description: as §2

S. aureus ATCC 9144 = experiment: MIC, microdilution method (9.1); type: cell-based, Staphylococcus aureus; settings: Staphylococcus aureus, ATCC9144, read after 18 h, read-out: MIC
Description: as §2

S. aureus ATCC 25923 = experiment: MIC, microdilution method (9.1); type: cell-based, Staphylococcus aureus; settings: Staphylococcus aureus, ATCC25923, read after 18 h, read-out: MIC
Description: as §2

[7] = test system: S. aureus CIP 65.25 (MRSA); experiment: MIC, microdilution method (9.1); type: cell-based, Staphylococcus aureus; settings: Staphylococcus aureus, read after 18 h, read-out: MIC
Description: as §2

[8] = test system: S. aureus ATCC 33592 (MRSA); experiment: MIC, microdilution method (9.1); type: cell-based, Staphylococcus aureus; settings: Staphylococcus aureus, read after 18 h, read-out: MIC
Description: as §2

[9] = test system: S. aureus ATCC 106414 (VISA); experiment: MIC, microdilution method (9.1); type: cell-based, Staphylococcus aureus; settings: Staphylococcus aureus, read after 18 h, read-out: MIC
Description: as §2

S. aureus CIP 103428 = experiment: MIC, microdilution method (9.1); type: cell-based, Staphylococcus aureus; settings: Staphylococcus aureus, CIP103428, read after 18 h, read-out: MIC
Description: as §2

S. aureus ATCC 6538 = experiment: MIC, microdilution method (9.1); type: cell-based, Staphylococcus aureus; settings: Staphylococcus aureus, ATCC6538, read after 18 h, read-out: MIC
Description: as §2

S. aureus SA-1199B = experiment: MIC, microdilution method (9.1); type: cell-based, Staphylococcus aureus; settings: Staphylococcus aureus, SA1199B, 18 h
Description: as §2

S. aureus CIP 65.6 = experiment: MIC, microdilution method (9.1); type: cell-based, Staphylococcus aureus; settings: Staphylococcus aureus, CIP65, read after 18 h, read-out: MIC
Description: as §2

[10] = test system: Listeria innocua CIP 80.11; experiment: MIC, microdilution method (9.1); type: cell-based; settings: CIP80, 18 h, read-out: MIC
Description: as §2

[11] = test system: Enterobacter cloacae ATCC13047; experiment: MIC, microdilution method (9.1); type: cell-based; settings: 18 h
Description: as §2

[12] = test system: Escherichia coli ATCC 25922; experiment: MIC, microdilution method (9.1); type: cell-based; settings: ATCC25922, 18 h
Description: as §2

[13] = test system: Acinetobacter baumanii ATCC 19606; experiment: MIC, microdilution method (9.1); type: cell-based; settings: Acinetobacter baumannii, ATCC19606, 18 h, read-out: MIC
Description: as §2

[14] = test system: Klebsiella pneumoniae API ATCC 35657; experiment: MIC, microdilution method (9.1); type: cell-based; settings: ATCC35657, 18 h, read-out: MIC
Description: as §2

[15] = test system: Serratia marcescens CIP 103551; experiment: MIC, microdilution method (9.1); type: cell-based; settings: CIP103551, 18 h
Description: as §2

S. pneumoniae ATCC 49619 = experiment: MIC, microdilution method (9.1); type: cell-based; settings: Streptococcus pneumoniae, ATCC49619, 10% sheep blood, 5% CO2, 18 h
Description: as §2

[16] = test system: Pseudomonas aeruginosa CIP 5933; experiment: MIC, microdilution method (9.1); type: cell-based; settings: CIP5933, 18 h, read-out: MIC
Description: as §2

[17] = test system: Haemophilus influenzae ATCC 49766; experiment: MIC, microdilution method (9.1); type: cell-based; settings: ATCC49766; Haemophilus influenzae ATCC 49766; 10% sheep blood, 5% CO2; 18 h; read-out: MIC
Description: as §2

[18] = test system: Bacillus subtilis CIP 5262; experiment: MIC, microdilution method (9.1); type: cell-based; settings: CIP5262, 18 h, read-out: MIC
Description: as §2

[19] = test system: S. epidermidis CIP 103627; experiment: MIC, microdilution method (9.1); type: cell-based, Staphylococcus epidermidis; settings: Staphylococcus epidermidis, CIP103627, read after 18 h, read-out: MIC
Description: as §2

[20] = test system: S. epidermidis ATCC 12228; experiment: MIC, microdilution method (9.1); type: cell-based, Staphylococcus epidermidis; settings: Staphylococcus epidermidis, ATCC12228, read after 18 h, read-out: MIC
Description: as §2

S. epidermidis CIP 81.55 = experiment: MIC, microdilution method (9.1); type: cell-based, Staphylococcus epidermidis; settings: Staphylococcus epidermidis, CIP81, read after 18 h, read-out: MIC
Description: as §2

E. faecium CIP 54.32 = experiment: MIC, microdilution method (9.1); type: cell-based, Enterococcus faecium; settings: Enterococcus faecium, CIP54, 18 h, read-out: MIC
Description: as §2

S. mitis CIP 103335 = experiment: MIC, microdilution method (9.1); type: cell-based, Streptococcus mitis; settings: Streptococcus mitis, CIP103335, 18 h, read-out: MIC
Description: as §2

Row | Structure (SMILES) | inhibition at 10 µM [1] | inhibition at 1 µM [1] | inhibition at 10 µM [2] | inhibition at 1 µM [2] | inhibition at 10 µM [3] | inhibition at 1 µM [3] | MIC (E. faecalis ATCC 29212) | MIC [4] | MIC [6] | MIC (S. pneumoniae ATCC 6303) | MIC (S. aureus ATCC 29213) | MIC (S. aureus ATCC 9144) | MIC (S. aureus ATCC 25923) | MIC [7] | MIC [8] | MIC [9] | MIC (S. aureus CIP 103428) | MIC (S. aureus ATCC 6538) | MIC (S. aureus SA-1199B) | MIC (S. aureus CIP 65.6) | other results
1 | CC(C)(C)OC(=O)NCC(NC(=O)c1c[nH]c2ccc(Br)cc12)c1c[nH]c2cc(Br)ccc12 (stereo not drawn) [Compound 3h, tert-Butyl (2-(6-bromo-1H-indol-3-yl)-2-(5-bromo-1H-indolyl-3-carboxamido)ethyl)carbamate] | 100 ± 3% | 0% | 100 ± 1% | 0% | 92 ± 1% | 0% | > 128 µg/mL | 32 µg/mL (≈ 55.5 µM) | 32 µg/mL (≈ 55.5 µM) | 32 µg/mL (≈ 55.5 µM) | 1 µg/mL (≈ 1.74 µM) | 1 µg/mL (≈ 1.74 µM) | 1 µg/mL (≈ 1.74 µM) | 1 µg/mL (≈ 1.74 µM) | 2 µg/mL (≈ 3.47 µM) | 1 µg/mL (≈ 1.74 µM) | 2 µg/mL (≈ 3.47 µM) | 1 µg/mL (≈ 1.74 µM) | 2 µg/mL (≈ 3.47 µM) | 2 µg/mL (≈ 3.47 µM) | IC50 ([5]; first value): 3.33 µM; IC50 ([5]; second value): 4.11 µM; MIC [10]: 32 µg/mL (≈ 55.5 µM); MIC [11]: > 128 µg/mL; MIC [12]: > 128 µg/mL; MIC [13]: > 128 µg/mL; MIC [14]: > 128 µg/mL; MIC [15]: > 128 µg/mL; MIC (S. pneumoniae ATCC 49619): 32 µg/mL (≈ 55.5 µM); MIC [16]: > 128 µg/mL; MIC [17]: 16 µg/mL (≈ 27.8 µM); MIC [18]: 32 µg/mL (≈ 55.5 µM); MIC [19]: 2 µg/mL (≈ 3.47 µM); MIC [20]: 1 µg/mL (≈ 1.74 µM); MIC (S. epidermidis CIP 81.55): 1 µg/mL (≈ 1.74 µM); MIC (E. faecium CIP 54.32): 32 µg/mL (≈ 55.5 µM); MIC (S. mitis CIP 103335): 32 µg/mL (≈ 55.5 µM)
2 | CC(C)(C)OC(=O)NCC(NC(=O)c1c[nH]c2cc(Cl)ccc12)c1c[nH]c2ccc(Cl)cc12 (stereo not drawn) [Compound 6b, tert-Butyl 2-(5-chloro-1H-indol-3-yl)-2-(6-chloro-1H-indole-3-carboxamido)ethyl carbamate] | 97 ± 6% | 0% | 92 ± 4% | 2% | 99 ± 1% | 0% | > 128 µg/mL | 128 µg/mL (≈ 263 µM) | 128 µg/mL (≈ 263 µM) | 64 µg/mL (≈ 131 µM) | 4 µg/mL (≈ 8.21 µM) | 4 µg/mL (≈ 8.21 µM) | 4 µg/mL (≈ 8.21 µM) | 4 µg/mL (≈ 8.21 µM) | 4 µg/mL (≈ 8.21 µM) | 4 µg/mL (≈ 8.21 µM) | 4 µg/mL (≈ 8.21 µM) | 4 µg/mL (≈ 8.21 µM) | 4 µg/mL (≈ 8.21 µM) | 4 µg/mL (≈ 8.21 µM) | MIC [10]: > 128 µg/mL; MIC [11]: > 128 µg/mL; MIC [12]: > 128 µg/mL; MIC [13]: > 128 µg/mL; MIC [14]: > 128 µg/mL; MIC [15]: > 128 µg/mL; MIC (S. pneumoniae ATCC 49619): 64 µg/mL (≈ 131 µM); MIC [16]: > 128 µg/mL; MIC [17]: > 128 µg/mL; MIC [18]: 64 µg/mL (≈ 131 µM); MIC [19]: 8 µg/mL (≈ 16.4 µM); MIC [20]: 4 µg/mL (≈ 8.21 µM); MIC (S. epidermidis CIP 81.55): 4 µg/mL (≈ 8.21 µM); MIC (E. faecium CIP 54.32): > 128 µg/mL; MIC (S. mitis CIP 103335): 128 µg/mL (≈ 263 µM)
